Measurements published in the supplement of paper PMC11150407.

Key:
Experiment in all cases: area under dose-response viability curve (log dose) (AUC (arbitrary)); higher = less sensitive
Settings in all cases: 72 h
Entinostat = compound: Nc1ccccc1NC(=O)c1ccc(CNC(=O)OCc2cccnc2)cc1 [Entinostat]
Description: (§1)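 Primary AML blasts from patients (3q26 EVI1-high and other AML) were treated for 72 h with a dose series of each drug. Viability was measured with an ATP-based CellTiter-Glo assay. The area under the curve of the log-transformed dose-response data was computed in GraphPad Prism; a lower AUC means greater sensitivity.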

AR-42 = compound: CC(C)[C@H](C(=O)Nc1ccc(C(=O)NO)cc1)c1ccccc1 [AR-42]
Description: as §1

Belinostat = compound: O=C(/C=C/c1cccc(S(=O)(=O)Nc2ccccc2)c1)NO [Belinostat]
Description: as §1

Methotrexate = compound: CN(Cc1cnc2nc(N)nc(N)c2n1)c1ccc(C(=O)N[C@@H](CCC(=O)O)C(=O)O)cc1 [Methotrexate]
Description: as §1

Daunorubicine = compound: COc1cccc2c1C(=O)c1c(O)c3c(c(O)c1C2=O)C[C@@](O)(C(C)=O)C[C@@H]3O[C@H]1C[C@H](N)[C@H](O)[C@H](C)O1 [Daunorubicine]
Description: as §1

Vincristine = compound: CC[C@]1(O)C[C@H]2CN(CCc3c([nH]c4ccccc34)[C@@](C(=O)OC)(c3cc4c(cc3OC)N(C=O)[C@H]3[C@@](O)(C(=O)OC)[C@H](OC(C)=O)[C@]5(CC)C=CCN6CC[C@]43[C@@H]65)C2)C1 [Vincristine]
Description: as §1

Row | Test System | area under dose-response viability curve (Entinostat) | area under dose-response viability curve (AR-42) | area under dose-response viability curve (Belinostat) | area under dose-response viability curve (Methotrexate) | area under dose-response viability curve (Daunorubicine) | area under dose-response viability curve (Vincristine)
1 | PR#035 (EVI1 status: EVI1Low) | 175 | 145 | 168 | 198 | 64.4 | 119
2 | PR#036 (EVI1 status: EVI1Low) | 172 | 130 | 150 | 251 | 48.2 | 123
3 | PR#037 (EVI1 status: EVI1Low) | 106 | 126 | 127 | 213 | 83.7 | 113
4 | PR#038 (EVI1 status: EVI1Low) | 143 | 141 | 167 | 209 | 86 | 187
5 | PR#039 (EVI1 status: EVI1Low) | 125 | 96 | 124 | 201 | 24.5 | 95.7
